We go through two substances from patent US8053470B2, “Process for the preparation of polynuclear ferric hydroxide-saccaride complexes” (Chongqing Pharmaceutical Research Institute Co., Ltd., priority 2005, dated 2011).

This series can be described thus: Isoelectric point of the iron-saccharide complex: pH at which its aqueous solution turns turbid on drop-wise addition of diluted hydrochloric acid (USP 27 iron sucrose injection method). As to conditions: examples described in text; Example 1 measured by method of 27th version of USP. The series is classed as physicochemical.

From the text: The term “isoelectric point” herein refers to a pH value at which the aqueous solution of iron-saccharide complexes turns turbid during the drop-wise addition of a diluted hydrochloric acid solution.

As for “Polynuclear Ferric Hydroxide-fructose Complex [Example 11]”, the “isoelectric point of the final product” value stood at 5.2.
As for “Polynuclear Ferric Hydroxide-sucrose Complex [Example 1]”, the “isoelectric point of the final product” value came to 4.4.
